Consider two compounds from article PMC7189608, “FaPAO5 regulates Spm/Spd levels as a signaling during strawberry fruit ripening” (Plant Direct, 2020).

In this assay the target is T1, FaPAO5.
T1 construct: 105 kDa fusion protein
The experiment in a line: isothermal titration calorimetry. The class given is binding, Fragaria x ananassa. The note with it: pH 7.4, 30 °C, 200 mM NaCl, 20 mM Tris, 0.5 mM EDTA, 10 mM maltose; MBP fusion protein (10 µM in Methods, 20 µM in Results); ligand 100 µM. The text has this: isothermal titration calorimetry on FaPAO5 | the binding of FaPAO5 to Spm and Spd followed a saturation kinetics curve
For orientation: In ITC the heat of successive injections is recorded.

As to `NCCCNCCCCNCCCN` [Spm], the Kd – broadly, the constant that tells how readily two partners part at equilibrium – was found to be 210 nM. Turning to `NCCCCNCCCN` [Spd], binding was characterised by a dissociation constant (Kd) of 290 nM.
